# Measurements published in ChEMBL document CHEMBL1131242, “6beta-Acetoxynortropane: a potent muscarinic agonist with apparent selectivity toward M2-receptors” (J Med Chem, 1998).
# How the values were obtained:
# [1] = biological target: Muscarinic acetylcholine receptor M3 (Homo sapiens, UniProt P20309); assay: Inhibition of binding of [3H]quinuclidinyl benzilate to human Muscarinic acetylcholine receptor M3 in membranes of transfected CHO cells at 100 uM concentration; conditions: Membrane
# [2] = biological target: Muscarinic acetylcholine receptor M1 (Homo sapiens) (UniProt P11229); assay: Inhibition of binding of [3H]quinuclidinyl benzilate to human Muscarinic acetylcholine receptor M1 in membranes of transfected CHO cells at 300 uM concentration; conditions: Membrane
# Sequence of Muscarinic acetylcholine receptor M1 (Homo sapiens) (P11229 whole entry, looked up): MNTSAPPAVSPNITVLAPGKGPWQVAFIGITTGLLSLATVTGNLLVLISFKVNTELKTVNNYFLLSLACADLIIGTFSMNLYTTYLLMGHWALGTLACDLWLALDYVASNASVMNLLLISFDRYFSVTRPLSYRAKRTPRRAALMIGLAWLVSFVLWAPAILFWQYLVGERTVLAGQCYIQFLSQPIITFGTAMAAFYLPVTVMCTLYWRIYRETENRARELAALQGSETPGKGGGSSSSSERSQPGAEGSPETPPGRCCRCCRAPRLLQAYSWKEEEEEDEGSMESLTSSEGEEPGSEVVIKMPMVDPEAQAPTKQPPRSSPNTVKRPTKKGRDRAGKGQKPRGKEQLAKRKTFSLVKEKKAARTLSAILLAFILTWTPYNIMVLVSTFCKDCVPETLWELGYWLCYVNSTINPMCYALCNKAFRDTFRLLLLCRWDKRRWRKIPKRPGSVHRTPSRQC
# Sequence of Muscarinic acetylcholine receptor M3 (P20309 whole entry, looked up): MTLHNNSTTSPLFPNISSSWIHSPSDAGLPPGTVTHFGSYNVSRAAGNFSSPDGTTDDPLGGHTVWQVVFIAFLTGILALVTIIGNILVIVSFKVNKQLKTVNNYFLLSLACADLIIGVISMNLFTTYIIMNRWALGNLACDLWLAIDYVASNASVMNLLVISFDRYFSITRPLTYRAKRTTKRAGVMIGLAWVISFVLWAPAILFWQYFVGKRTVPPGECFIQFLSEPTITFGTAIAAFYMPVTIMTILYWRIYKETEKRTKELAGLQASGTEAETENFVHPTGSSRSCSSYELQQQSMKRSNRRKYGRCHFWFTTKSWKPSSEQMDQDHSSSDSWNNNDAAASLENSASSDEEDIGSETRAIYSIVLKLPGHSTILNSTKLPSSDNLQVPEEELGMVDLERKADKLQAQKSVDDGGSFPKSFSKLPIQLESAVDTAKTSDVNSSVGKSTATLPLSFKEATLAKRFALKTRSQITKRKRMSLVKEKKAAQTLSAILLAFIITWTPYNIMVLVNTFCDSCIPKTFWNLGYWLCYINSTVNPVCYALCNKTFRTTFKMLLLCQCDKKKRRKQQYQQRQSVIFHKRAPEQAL
smiles,measurement,setting,value
CC(=O)OC(C)C[N+](C)(C)C (configuration not stated) [METHACHOLINE],inhibition,[1],34%
same,inhibition,[2],8%
